{
  "source": "patent US20240317791A1",
  "about": "(priority 2021, published 2024)",
  "key": {"Candida auris": {"test_system": "Candida auris", "experiment": "MIC determination against clinical isolates of Candida auris (CLSI M27, 4th edition)", "type": "cell-based", "conditions": "Candidozyma auris", "text": "(§1) MIC: Minimum Inhibitory Concentration (MIC) is defined as the lowest concentration of an antimicrobial ingredient that is bacteriostatic.\n(§2) Testing has been performed in triplicates for each isolate."}, "Mucor circinelloides": {"test_system": "Mucor circinelloides", "experiment": "MIC determination against ATCC and clinical isolates of the order Mucorales (CLSI M27, 4th edition)", "type": "cell-based", "text": "as §1, §2"}, "Rhizopus microsporus": {"test_system": "Rhizopus microsporus", "experiment": "MIC determination against clinical isolates of the order Mucorales (CLSI M27, 4th edition)", "type": "cell-based", "text": "as §1, §2"}, "Rhizopus oryzae [1]": {"test_system": "Rhizopus oryzae", "experiment": "MIC determination against clinical isolates of the order Mucorales (CLSI M27, 4th edition)", "type": "cell-based", "conditions": "Rhizopus arrhizus, strain 2086, clinical strain", "text": "as §1, §2"}, "Aspergillus spp.": {"test_system": "Aspergillus spp.", "conditions": "13 strains of Aspergillus spp.; cited from earlier work"}, "Penicillium spp.": {"test_system": "Penicillium spp.", "conditions": "5 strains of Penicillium spp.; cited from earlier work"}, "Sporothrix schenkii": {"test_system": "Sporothrix schenkii", "conditions": "1 strain of Sporothrix schenkii; cited from earlier work"}, "Rhizopus oryzae [2]": {"test_system": "Rhizopus oryzae", "conditions": "4 strains of Rhizopus oryzae; cited from earlier work"}, "Microsporum spp.": {"test_system": "Microsporum spp.", "conditions": "2 strains of Microsporum spp; cited from earlier work"}, "Trichophyton spp.": {"test_system": "Trichophyton spp.", "conditions": "7 strains of Trichophyton spp.; cited from earlier work"}, "[3]": {"conditions": "rats, single intravenous administration; amcipatricin diascorbate 1.25 mg/kg, amphotericin B 1 mg/kg; cited from earlier work"}},
  "note": "Read-outs that look alike come from different tables or passages of the source. Numbered stars: 1 amine (or outer) side, 2 acyl side, 3 side chain; on linkers, the order of the positions; unused ones are H or OH. Bridge positions count the residues as written; N and C are the ends. Square brackets hold non-standard residues; d marks the D form. Peptide text beside a SMILES is read from it. * marks the point of attachment. hTyr(3S-OH,4S-OH,3'-OSO3H) = N[C@H](C(=O)O)[C@H](O)[C@@H](O)c1ccc(O)c(OS(=O)(=O)O)c1; Orn(4R-OH,5R-OH) = O=C([C@H](C[C@@H](O)[C@@H](O)N[*:3])N[*:1])[*:2]; Pro(3S-OH,4S-Me) = C[C@H]1CN[C@H](C(=O)O)[C@H]1O; X1 = CCCCCOc1ccc(-c2cc(-c3ccc(C(=O)*)cc3)no2)cc1; Gln(3R-OH) = NC(=O)C[C@@H](O)[C@H](N)C(=O)O; Hyp = O=C(O)[C@@H]1C[C@@H](O)CN1",
  "data": [
    {"smiles": "CCCCCOc1ccc(-c2cc(-c3ccc(C(=O)N[C@H]4C[C@@H](O)[C@@H](O)NC(=O)[C@@H]5[C@@H](O)[C@@H](C)CN5C(=O)[C@H]([C@H](O)CC(N)=O)NC(=O)[C@H]([C@H](O)[C@@H](O)c5ccc(O)c(OS(=O)(=O)O)c5)NC(=O)[C@@H]5C[C@@H](O)CN5C(=O)[C@H]([C@@H](C)O)NC4=O)cc3)no2)cc1", "note": "[Micafungin] (X1-[Orn(4R-OH,5R-OH)]T[Hyp][hTyr(3S-OH,4S-OH,3'-OSO3H)][Gln(3R-OH)][Pro(3S-OH,4S-Me)]; lactam 1-C)", "values": [
      {"measurement": "MIC", "setting": "Candida auris; read-out: MIC values, strain I.2 (No 2), clade I/India", "value": 0.125, "unit": "µg/mL"},
      {"measurement": "MIC", "setting": "Candida auris; read-out: MIC values, strain I.3 (No 3), clade I/India", "value": "> 1020", "unit": "µg/mL"},
      {"measurement": "MIC", "setting": "Candida auris; read-out: MIC values, strain I.4 (No 4), clade I/India", "value": 0.125, "unit": "µg/mL"},
      {"measurement": "MIC", "setting": "Candida auris; read-out: MIC values, strain II.1 (No 5), clade II/Japan", "value": 0.125, "unit": "µg/mL"},
      {"measurement": "MIC", "setting": "Candida auris; read-out: MIC values, strain II.2 (No 1), clade II/India", "value": 0.125, "unit": "µg/mL"},
      {"measurement": "MIC", "setting": "Candida auris; read-out: MIC values, strain III.7 (No 12), clade III/Switzerland", "value": 0.25, "unit": "µg/mL"},
      {"measurement": "MIC", "setting": "Candida auris; read-out: MIC values, strain III.8 (No 13), clade III/Israel", "value": 0.25, "unit": "µg/mL"},
      {"measurement": "MIC", "setting": "Candida auris; read-out: MIC values, strain III.9 (No 14), clade III/Israel", "value": 0.25, "unit": "µg/mL"},
      {"measurement": "MIC", "setting": "Candida auris; read-out: MIC values, strain IV.1 (No 15), clade IV/Colombia", "value": 0.125, "unit": "µg/mL"},
      {"measurement": "MIC", "setting": "Candida auris; read-out: MIC values, strain IV.10 (No 7), clade IV/Israel", "value": 0.25, "unit": "µg/mL"},
      {"measurement": "MIC", "setting": "Candida auris; read-out: MIC values, strain IV.11 (No 8), clade IV/Israel", "value": 0.25, "unit": "µg/mL"},
      {"measurement": "MIC", "setting": "Candida auris; read-out: MIC values, strain IV.12 (No 9), clade IV/Israel", "value": 0.25, "unit": "µg/mL"},
      {"measurement": "MIC", "setting": "Candida auris; read-out: MIC values, strain IV.13 (No 10), clade IV/Israel", "value": 0.25, "unit": "µg/mL"},
      {"measurement": "MIC", "setting": "Candida auris; read-out: MIC values, strain IV.14 (No 11), clade IV/Israel", "value": 0.5, "unit": "µg/mL"},
      {"measurement": "MIC", "setting": "Candida auris; read-out: MIC values, strain IV.2 (No 16), clade IV/Colombia", "value": 0.125, "unit": "µg/mL"},
      {"measurement": "MIC", "setting": "Candida auris; read-out: MIC values, strain IV.3 (No 17), clade IV/Colombia", "value": 0.125, "unit": "µg/mL"},
      {"measurement": "MIC", "setting": "Candida auris; read-out: MIC values, strain IV.4 (No 18), clade IV/Colombia", "value": 0.125, "unit": "µg/mL"},
      {"measurement": "MIC", "setting": "Candida auris; read-out: MIC values, strain IV.5 (No 19), clade IV/Colombia", "value": 0.125, "unit": "µg/mL"},
      {"measurement": "MIC", "setting": "Candida auris; read-out: MIC values, strain IV.6 (No 20), clade IV/Colombia", "value": 0.125, "unit": "µg/mL"},
      {"measurement": "MIC", "setting": "Candida auris; read-out: MIC values, strain IV.7 (No 21), clade IV/Colombia", "value": 0.25, "unit": "µg/mL"},
      {"measurement": "MIC", "setting": "Candida auris; read-out: MIC values, strain IV.8 (No 22), clade IV/Colombia", "value": 0.25, "unit": "µg/mL"},
      {"measurement": "MIC", "setting": "Candida auris; read-out: MIC values, strain IV.9 (No 6), clade IV/Israel", "value": 0.25, "unit": "µg/mL"}
    ]},
    {"smiles": "C[C@@H]1[C@H](O)[C@@H](C)/C=C/C=C/C=C/C=C/C=C/C=C/C=C/[C@H](O[C@@H]2O[C@H](C)[C@@H](O)[C@H](N)[C@@H]2O)C[C@@H]2O[C@](O)(C[C@@H](O)C[C@@H](O)[C@H](O)CC[C@@H](O)C[C@@H](O)CC(=O)O[C@H]1C)C[C@H](O)[C@H]2C(=O)O", "note": "[Amphotericin B]", "values": [
      {"measurement": "MIC", "setting": "Candida auris; strain I.2 (No 2), clade I/India, read-out: MIC values", "value": 1, "unit": "µg/mL"},
      {"measurement": "MIC", "setting": "Candida auris; strain I.3 (No 3), clade I/India, read-out: MIC values", "value": 1, "unit": "µg/mL"},
      {"measurement": "MIC", "setting": "Candida auris; strain I.4 (No 4), clade I/India, read-out: MIC values", "value": 1, "unit": "µg/mL"},
      {"measurement": "MIC", "setting": "Candida auris; strain II.1 (No 5), clade II/Japan, read-out: MIC values", "value": 0.5, "unit": "µg/mL"},
      {"measurement": "MIC", "setting": "Candida auris; strain II.2 (No 1), clade II/India, read-out: MIC values", "value": 0.25, "unit": "µg/mL"},
      {"measurement": "MIC", "setting": "Candida auris; strain III.7 (No 12), clade III/Switzerland, read-out: MIC values", "value": 0.5, "unit": "µg/mL"},
      {"measurement": "MIC", "setting": "Candida auris; strain III.8 (No 13), clade III/Israel, read-out: MIC values", "value": 0.5, "unit": "µg/mL"},
      {"measurement": "MIC", "setting": "Candida auris; strain III.9 (No 14), clade III/Israel, read-out: MIC values", "value": 1, "unit": "µg/mL"},
      {"measurement": "MIC", "setting": "Candida auris; strain IV.1 (No 15), clade IV/Colombia, read-out: MIC values", "value": 2, "unit": "µg/mL"},
      {"measurement": "MIC", "setting": "Candida auris; strain IV.10 (No 7), clade IV/Israel, read-out: MIC values", "value": 0.25, "unit": "µg/mL"},
      {"measurement": "MIC", "setting": "Candida auris; strain IV.11 (No 8), clade IV/Israel, read-out: MIC values", "value": 0.5, "unit": "µg/mL"},
      {"measurement": "MIC", "setting": "Candida auris; strain IV.12 (No 9), clade IV/Israel, read-out: MIC values", "value": 0.5, "unit": "µg/mL"},
      {"measurement": "MIC", "setting": "Candida auris; strain IV.13 (No 10), clade IV/Israel, read-out: MIC values", "value": 1, "unit": "µg/mL"},
      {"measurement": "MIC", "setting": "Candida auris; strain IV.14 (No 11), clade IV/Israel, read-out: MIC values", "value": 0.5, "unit": "µg/mL"},
      {"measurement": "MIC", "setting": "Candida auris; strain IV.2 (No 16), clade IV/Colombia, read-out: MIC values", "value": 2, "unit": "µg/mL"},
      {"measurement": "MIC", "setting": "Candida auris; strain IV.3 (No 17), clade IV/Colombia, read-out: MIC values", "value": 2, "unit": "µg/mL"},
      {"measurement": "MIC", "setting": "Candida auris; strain IV.4 (No 18), clade IV/Colombia, read-out: MIC values", "value": 1, "unit": "µg/mL"},
      {"measurement": "MIC", "setting": "Candida auris; strain IV.5 (No 19), clade IV/Colombia, read-out: MIC values", "value": 1, "unit": "µg/mL"},
      {"measurement": "MIC", "setting": "Candida auris; strain IV.6 (No 20), clade IV/Colombia, read-out: MIC values", "value": 1, "unit": "µg/mL"},
      {"measurement": "MIC", "setting": "Candida auris; strain IV.7 (No 21), clade IV/Colombia, read-out: MIC values", "value": 1, "unit": "µg/mL"},
      {"measurement": "MIC", "setting": "Candida auris; strain IV.8 (No 22), clade IV/Colombia, read-out: MIC values", "value": 1, "unit": "µg/mL"},
      {"measurement": "MIC", "setting": "Candida auris; strain IV.9 (No 6), clade IV/Israel, read-out: MIC values", "value": 0.5, "unit": "µg/mL"},
      {"measurement": "MIC", "setting": "Mucor circinelloides; ATCC24905, strain ATCC 24905, ATCC strain", "value": 0.25, "unit": "µg/mL"},
      {"measurement": "MIC", "setting": "Mucor circinelloides; strain 2109, clinical strain", "value": 0.5, "unit": "µg/mL"},
      {"measurement": "MIC", "setting": "Mucor circinelloides; strain 2707, clinical strain", "value": 0.25, "unit": "µg/mL"},
      {"measurement": "MIC", "setting": "Mucor circinelloides; strain 4280, clinical strain", "value": 1, "unit": "µg/mL"},
      {"measurement": "MIC", "setting": "Rhizopus microsporus; strain 3315, clinical strain", "value": 0.25, "unit": "µg/mL"},
      {"measurement": "MIC", "setting": "Rhizopus microsporus; strain 3435, clinical strain", "value": 0.5, "unit": "µg/mL"},
      {"measurement": "MIC", "setting": "Rhizopus oryzae [1]", "value": 1, "unit": "µg/mL"},
      {"measurement": "geometric means of the minimum fungicidal concentrations", "setting": "Aspergillus spp.", "value": 12.53, "unit": "µg/mL"},
      {"measurement": "geometric means of the minimum fungicidal concentrations", "setting": "Penicillium spp.", "value": "about 12 μg/mL"},
      {"measurement": "MFC", "setting": "Sporothrix schenkii", "value": 19.2, "unit": "µg/mL"},
      {"measurement": "geometric means of the minimum fungicidal concentration values compared to amcipatricin diascorbate", "setting": "Rhizopus oryzae [2]", "value": "lower"},
      {"measurement": "geometric means of the minimum fungicidal concentration values compared to amcipatricin diascorbate", "setting": "Microsporum spp.", "value": "lower"},
      {"measurement": "geometric means of the minimum fungicidal concentration values compared to amcipatricin diascorbate", "setting": "Trichophyton spp.", "value": "lower"},
      {"measurement": "area under the curve to infinity (AUC(0-∞))", "setting": "[3]", "value": 10330, "unit": "ng·h/mL"},
      {"measurement": "elimination half-lives", "setting": "[3]", "value": 18.15, "unit": "h"}
    ]}
  ]
}
